# Reference: patent US20060046966A1, “Antipicornaviral compounds and compositions, their pharmaceutical uses, and materials for their synthesis” (Agouron Pharmaceuticals, Inc., priority 1998, published 2006)
# pEC50: −log10 of the molar value. Where two headings read alike, the source gives them in different places.
# Tests used:
# [1] = target: T1, rhinovirus 3C protease from HRV serotype-14 (Human rhinovirus 14, UniProt P03303); experiment: Inhibition of rhinovirus 3C protease (FRET assay), serotype 14; type: biochemical; details: HRV serotype-14 3C protease; progress curves in enzyme start experiments; read-out: Protease Inhibition kobs/[I]
# T1 construct: Recombinant rhinovirus 3C proteases; made in house
# T1 sequence (P03303 1538-1719): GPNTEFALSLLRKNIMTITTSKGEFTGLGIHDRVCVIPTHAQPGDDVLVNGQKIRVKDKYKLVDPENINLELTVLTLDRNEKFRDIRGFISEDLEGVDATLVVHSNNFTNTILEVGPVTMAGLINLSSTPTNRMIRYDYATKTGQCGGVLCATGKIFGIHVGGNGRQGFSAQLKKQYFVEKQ
# Procedure: (§1) Stock solutions (50 mM, in DMSO) of various compounds were prepared; dilutions were in the same solvent. Recombinant rhinovirus 3C proteases (see Birch et al., “Purification of recombinant human rhinovirus 14 3C protease expressed in Escherichia coli,” Protein Expr. Pur. 1995, 6(5), 609-618) from serotypes 14, 16, and 2 were prepared by the following standard chromatographic procedures: (1) ion exchange using Q Sepharose Fast Flow from Pharmacia; (2) affinity chromatography using Affi-Gel Blue from Biorad; and (3) sizing using Sephadex G-100 from Pharmacia. Each assay sample contained 2% DMSO, 50 mM tris pH 7.6, 1 mM EDTA, a test compound at the indicated concentration, approximately 1 μM substrate, and 50-100 nM protease. The kobs/I values were obtained from reactions initiated by addition of enzyme rather than substrate. RVP activity was measured in the fluorescence resonance energy transfer assay. The substrate was (N-terminal) DABCYL-(Gly-Arg-Ala-Val-Phe-Gln-Gly-Pro-Val-Gly)-EDANS. In the uncleaved peptide, the EDANS fluorescence was quenched by the proximal DABCYL moiety. When the peptide was cleaved, the quenching was relieved, and activity was measured as an increase in fluorescence signal. In Table 1, all data are for rhinovirus 3C protease from HRV serotype-14 (produced from the infectious cDNA clone constructed by Dr. Robert Rueckert, Institute for Molecular Virology, University of Wisconsin, Madison, Wis.). […] The data in the column designated kobs/[I] were measured from progress curves in enzyme start experiments.
# HRV-14 = experiment: Antirhinoviral H1-HeLa cell culture assay, HRV-14; type: cell-based, human rhinovirus; details: Rhinovirus B, HRV14, H1-HeLa, HRV serotype-14, H1-HeLa cells
# Procedure: (§2) In this cell protection assay, the ability of compounds to protect cells against HRV infection was measured by the XTT dye reduction method, which is described in Weislow et al., J. Natl. Cancer Inst. 1989, vol. 81, 577-586.
# (§3) H1-HeLa cells were infected with HRV-14 at a multiplicity of infection (m.o.i.) of 0.13 (virus particles/cell) or mock-infected with medium only. Infected or mock-infected cells were resuspended at 8×10^5 cells per mL, and incubated with appropriate concentrations of the compounds to be tested. Two days later, XTT/PMS was added to test plates and the amount of formazan produced was quantified spectrophotometrically at 450/650 nm. The EC50 value was calculated as the concentration of compound that increased the percentage of formazan production in compound-treated, virus-infected cells to 50% of that produced by compound-free, mock-infected cells. The 50% cytotoxic dose (CC50) was calculated as the concentration of compound that decreased the percentage of formazan produced in compound-treated, mock-infected cells to 50% of that produced by compound-free, mock-infected cells. The therapeutic index (TI) was calculated by dividing the CC50 value by the EC50 value.
# (§4) All strains of human rhinovirus (HRV) for use in this assay were purchased from American Type Culture Collection (ATCC), except for HRV serotype-14 (produced from the infectious cDNA clone constructed by Dr. Robert Rueckert, Institute for Molecular Virology, University of Wisconsin, Madison, Wis.). HRV stocks were propagated and viral assays were performed in H1-HeLa cells (ATCC). Cells were grown in minimal essential medium with 10% fetal bovine serum, available from Life Technologies (Gaithersburg, Md.).
# (§5) The compounds were tested against control compounds WIN 51711, WIN 52084, and WIN 54954 (obtained from Sterling-Winthrop Pharmaceuticals), Pirodavir (obtained from Janssen Pharmaceuticals), and Pleconaril (prepared according to the method described in Diana et al., J. Med. Chem 1995, vol. 38, 1355). Antiviral data obtained for the test compounds are shown in Tables 1 and 3, where all data are for HRV serotype-14 unless otherwise noted in parentheses.
# HRV (2) = experiment: Antirhinoviral H1-HeLa cell culture assay, HRV serotype 2; type: cell-based, human rhinovirus; details: H1-HeLa cells, XTT
# Procedure: as §2, §3, §4, §5
# HRV (1A) = experiment: Antirhinoviral H1-HeLa cell culture assay, HRV serotype 1A; type: cell-based; details: Human rhinovirus sp., H1-HeLa cells, XTT
# Procedure: as §2, §3, §4, §5
# HRV (89) = experiment: Antirhinoviral H1-HeLa cell culture assay, HRV serotype 89; type: cell-based, human rhinovirus; details: H1-HeLa cells, XTT
# Procedure: as §2, §3, §4, §5
# HRV (10) = experiment: Antirhinoviral H1-HeLa cell culture assay, HRV serotype 10; type: cell-based, human rhinovirus; details: H1-HeLa cells, XTT
# Procedure: as §2, §3, §4, §5
# [2] = Cytotoxicity in mock-infected H1-HeLa cells (antirhinoviral assay, XTT); type: cell-based; details: human, 50% cytotoxic dose, two days
# Procedure: as §3, §4
# [3] = tested on: Coxsackievirus type A-21 (CAV-21); experiment: Anticoxsackieviral cell culture assay, CAV-21; type: cell-based; details: H1-HeLa, 48 h
# Procedure: (§6) Coxsackievirus types A-21 (CAV-21) and B3 (CVB-3) were purchased from American Type Culture Collection (ATCC, Rockville, Md.). Virus stocks were propagated and antiviral assays were performed in H1-HeLa cells (ATCC). Cells were grown in minimal essential medium with 10% fetal bovine serum (Life Technologies, Gaithersburg, Md.).
# (§7) The ability of compounds to protect cells against either CAV-21 or CVB-3 infection was measured by the XTT dye reduction method. This method is described in Weislow et al., J. Natl. Cancer Inst. 1989, vol. 81, 577-586. H1-HeLa cells were infected with CAV-21 or CVB-3 at a multiplicity of infection (m.o.i.) of 0.025 or 0.075, respectively, or mock-infected with medium only. H1-HeLa cells were plated at 4×10^4 cells per well in a 96-well plate and incubated with appropriate concentrations of the test compound. One day (CVB-3) or two days (CAV-21) later, XTT/PMS was added to test plates and the amount of formazan produced was quantified spectrophotometrically at 450/650 nm. The EC50 was calculated as the concentration of compound that increased the formazan production in compound-treated, virus-infected cells to 50% of that produced by compound-free, uninfected cells. The 50% cytotoxic dose (CC50) was calculated as the concentration of compound that decreased formazan production in compound-treated, uninfected cells to 50% of that produced in compound-free, uninfected cells. The therapeutic index TI) was calculated by dividing the CC50 by the EC50.
# (§8) The compounds were tested against control compounds WIN 54954 (obtained from Sterling-Winthrop Pharmaceuticals), Pirodavir (obtained from Janssen Pharmaceuticals), and Pleconaril (prepared according to Diana et al., J. Med. Chem. 1995, 38, 1355).
# [4] = tested on: Coxsackievirus type B3 (CVB-3); experiment: Anticoxsackieviral cell culture assay, CVB-3; type: cell-based; details: H1-HeLa, 24 h
# Procedure: as §6, §7, §8
# [5] = tested on: Echovirus type 11 (EV 11); experiment: Anti-echoviral cell culture assay, EV 11; type: cell-based; details: Enterovirus B, MRC5, 96 h
# Procedure: Echovirus type 11 (EV 11) and enterovirus type 70 (EV 70) were purchased from ATCC (Rockville, Md.). Virus stocks were propagated and antiviral assays were performed in MRC-5 cells (ATCC). Cells were grown in minimal essential medium with 10% fetal bovine serum (Life Technologies, Gaithersburg, Md.).
# The ability of compounds to protect cells against either EV 11 or EV 70 infection was measured by the XTT dye reduction method (Weislow et al., J. Natl. Cancer Inst. 1989, vol. 81, 577-586). MRC-5 cells were infected with EV 11 or EV 70 at an m.o.i. of 0.003 or 0.004, respectively, or mock-infected with medium only. Infected or uninfected cells were added at 1×10^4 cells per well and incubated with appropriate concentrations of compound. Four days later, XTT/PMS was added to test plates, and the amount of formazan produced was quantified spectrophotometrically at 450/650 nm. The EC50 was calculated as the concentration of compound that increased the formazan production in compound-treated, virus-infected cells to 50% of that produced by compound-free, uninfected cells. The 50% cytotoxic dose (CC50) was calculated as the concentration of compound that decreased formazan production in compound-treated, uninfected cells to 50% of that produced in compound-free, uninfected cells. The therapeutic index (TI) was calculated by dividing the CC50 by the EC50.
# The compounds were tested against control compounds Pirodavir (obtained from Janssen Pharmaceuticals) and Pleconaril (prepared according to Diana et al., J. Med. Chem. 1995, vol. 38, 1355). Antiviral data obtained for the test compounds against strain EV 11 and EV 70 are shown below in Table 5.
# [6] = target: T2, rhinovirus 3C protease, serotype 2 (Human rhinovirus 2, UniProt P04936); experiment: Inhibition of rhinovirus 3C protease (FRET assay), serotype 2; type: biochemical; details: Rhinovirus Serotype (2) 3C protease; read-out: kobs/I
# T2 construct: Recombinant rhinovirus 3C proteases; made in house
# T2 sequence (P04936 1508-1690): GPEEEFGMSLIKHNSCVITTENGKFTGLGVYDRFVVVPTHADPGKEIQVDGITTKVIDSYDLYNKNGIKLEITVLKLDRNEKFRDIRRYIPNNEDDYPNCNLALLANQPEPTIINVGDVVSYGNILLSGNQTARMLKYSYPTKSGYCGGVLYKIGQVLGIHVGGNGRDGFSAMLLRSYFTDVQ
# Procedure: as §1
# HRV (39) = experiment: Antirhinoviral H1-HeLa cell culture assay, HRV serotype 39; type: cell-based, human rhinovirus; details: H1-HeLa cells, XTT
# Procedure: as §2, §3, §4
# (§9) The compounds were tested against control compounds WIN 51711, WIN 52084, and WIN 54954 (obtained from Sterling-Winthrop Pharmaceuticals), Pirodavir (obtained from Janssen Pharmaceuticals), and Pleconaril (prepared according to the method described in Diana et al., J. Med. Chem 1995, vol. 38, 1355). […]
# HRV (3) = experiment: Antirhinoviral H1-HeLa cell culture assay, HRV serotype 3; type: cell-based, human rhinovirus; details: H1-HeLa cells, XTT
# Procedure: as §2, §3, §4, §9
# HRV (9) = experiment: Antirhinoviral H1-HeLa cell culture assay, HRV serotype 9; type: cell-based, human rhinovirus; details: H1-HeLa cells, XTT
# Procedure: as §2, §3, §4, §9
# HRV (13) = experiment: Antirhinoviral H1-HeLa cell culture assay, HRV serotype 13; type: cell-based, human rhinovirus; details: H1-HeLa cells, XTT
# Procedure: as §2, §3, §4, §9
# HRV (17) = experiment: Antirhinoviral H1-HeLa cell culture assay, HRV serotype 17; type: cell-based, human rhinovirus; details: H1-HeLa cells, XTT
# Procedure: as §2, §3, §4, §9
# [7] = Table 1, XTT dye reduction, read-out: Cell Protection EC50
SMILES,kinact/KI [1] [M⁻¹ s⁻¹],pEC50 (HRV-14; [7]),"pEC50 (HRV-14; Table 3, XTT, read-out: EC50)",pEC50 (HRV (1A)),"pEC50 (HRV (10); Human rhinovirus sp., H1-HeLa)",CC50 at 2 days [2] [nM],further results
"CCOC(=O)/C=C/[C@H](CCC(N)=O)NC(=O)[C@H](Cc1ccccc1)NC(=O)[C@H](CC(C)C)NC(=O)c1cc(C)on1 [Compound A-1, Ethyl-3-((5′-Methylisoxazole-3′-carbonyl)-L-Leu-L-Phe-L-Gin)-E-Propenoate]",260000,6.60,6.60,6.00,,,"pEC50 (HRV (2); Human rhinovirus sp., H1-HeLa): 6.39; pEC50 (HRV (89); Human rhinovirus sp.): 6.66"
"Cc1cc(CCCOc2c(C)cc(-c3noc(C(F)(F)F)n3)cc2C)on1 [Pleconaril, reference compound]",,,8.00,,,,pEC50 [3]: 7.05; pEC50 [4]: < 5.00; pEC50 [5]: 6.80
"CCOC(=O)/C=C/[C@H](C[C@@H]1CCNC1=O)NC(=O)[C@H](Cc1ccccc1)NC(=O)[C@H](CC(C)C)NC(=O)OCc1ccccc1 [Compound A-24, Ethyl-3-{Cbz-L-Leu-L-Phe-L-((S)-Pyrrol-Ala)}-E-Propenoate]",257000,7.00,7.00,,,,kinact/KI [6]: 31000 M⁻¹ s⁻¹
CCOC(=O)/C=C/[C@H](CCC(N)=O)NC(=O)[C@H](Cc1ccc(C)cc1)NC(=O)[C@@H](NC(=O)c1ccc[nH]1)C(C)(C)C [Compound A-16],173000,6.35,6.35,5.32,5.35,> 100000,
"CCOC(=O)/C=C/[C@H](C[C@@H]1CCNC1=O)NC(=O)[C@H](Cc1ccc(F)cc1)NC(=O)[C@@H](NC(=O)c1cc(C)on1)C(C)(C)C [Compound A-7, Ethyl-3-{(5′-Methylisoxazole-3′-carbonyl)-L-α-(t-Butyl-Gly)-L-(4-F-Phe)-L-((S)-Pyrrol-Ala)}-E-Provenoate]",980000,8.40,,,,,pEC50 (HRV (2)): 7.70; pEC50 (HRV (89)): 7.70; pEC50 (HRV (39)): 7.70; pEC50 (HRV (10)): 7.22; pEC50 (HRV (3)): 7.70; pEC50 (HRV (9)): 7.40; pEC50 (HRV (13)): 7.52; pEC50 (HRV (17)): 7.70

# The next lines start with results.
kinact/KI [1] [M⁻¹ s⁻¹],pEC50 (HRV-14; [7]),"pEC50 (HRV-14; Table 3, XTT, read-out: EC50)",pEC50 (HRV (1A)),"pEC50 (HRV (10); Human rhinovirus sp., H1-HeLa)",SMILES,CC50 at 2 days [2] [nM],further results
167000,7.22,7.22,5.74,5.48,CCOC(=O)/C=C/[C@H](CCC(N)=O)NC(=O)[C@H](Cc1ccc(F)cc1)NC(=O)[C@@H](NC(=O)C1SCCS1)C(C)(C)C [Compound A-17],> 100000,
46900,5.80,5.80,,,"CCOC(=O)/C=C/[C@H](CCC(N)=O)NC(=O)[C@H](Cc1ccccc1)NC(=O)[C@H](CC(C)C)NC(=O)c1ccno1 [Compound A-2, Ethyl-3-((Isoxazole-5′-carbonyl)-L-Leu-L-Phe-L-Gln)-E-Propenoate]",,melting point: 217 to 220 °C
240000,7.00,7.00,6.52,6.40,"CCOC(=O)/C=C/[C@H](CCC(N)=O)NC(=O)[C@@H](CC(=O)[C@@H](NC(=O)c1cc(C)on1)C(C)C)Cc1ccc(F)cc1 [Compound B-1, Ethyl-3-[(5′-Methylisoxazole-3′-carbonyl)-L-ValΨ(COCH2)-L-(4-F-Phe)-L-Gln}-E-Propenoate]",,
237000,6.66,6.66,5.15,5.57,CCOC(=O)/C=C/[C@H](CCC(N)=O)NC(=O)[C@H](Cc1ccc(C)cc1)NC(=O)[C@@H](NC(=O)C1SCCS1)C(C)(C)C [Compound A-15],> 100000,
292000,5.82,5.82,,,CC(C)[C@H](NC(=O)C1SCCS1)C(=O)N[C@@H](Cc1ccc(F)cc1)C(=O)N[C@H](/C=C/C(=O)OCc1cccnc1)CCC(N)=O [Compound A-18],> 100000,
